The results in this text go back to publication PMC12704303, “Production of RPSL12-TetR fusion and development of two multiplex methods for simultaneous detection of tetracyclines and aminoglycosides in pork” (Food Chemistry: X, 2025).

As a reminder, the IC50 is the concentration that inhibits the measured activity by half. Read a low IC50 as inhibition by little substance.

Converted amounts (≈) assume the structure as drawn.

For the first test, the system named is T1, RPSL12-TetR.
T1 construct: gene rpsL; single-chain fusion RPSL12 (372 bp) - linker (45 bp) - TetR (636 bp), total 1053 bp, in pET-32a(+), His-tag, expressed in E. coli host, Ni-NTA from soluble supernatant, about 41 kDa
In words: microplate direct competition chemiluminescence, coated fusion protein, STR-ALP tracer. The format is binding, Escherichia coli. The note with it: competition with streptomycin-ALP conjugate (RPSL12 part); blank pork extract; 37 °C, 30 min. An excerpt: microplate direct competition chemiluminescence, coated fusion protein, STR-ALP tracer on RPSL12-TetR
On to `NC[C@H]1O[C@H](O[C@H]2[C@H](O)[C@@H](O[C@H]3O[C@H](CO)[C@@H](O)[C@H](N)[C@H]3O)[C@H](N)C[C@@H]2N)[C@H](O)[C@@H](O)[C@@H]1O` [KAN], for which the “IC50” value is recorded as 6.4 ng/mL (≈ 13.2 nM).

Take `NC[C@@H]1O[C@H](O[C@H]2[C@@H](O)[C@H](O[C@@H]3[C@@H](O)[C@H](N)C[C@H](N)[C@H]3O[C@H]3O[C@H](CO)[C@@H](O)[C@H](O)[C@H]3N)O[C@@H]2CO)[C@H](N)[C@@H](O)[C@@H]1O` [PMM]: the half-inhibitory concentration (IC50) was determined as 5.4 ng/mL (≈ 8.77 nM).

As to `CN[C@@H]1[C@H](O[C@H]2[C@H](O[C@H]3[C@H](O)[C@@H](O)[C@H](N=C(N)N)[C@@H](O)[C@@H]3N=C(N)N)O[C@@H](C)[C@]2(O)C=O)O[C@@H](CO)[C@H](O)[C@H]1O` [STR], the “IC50” value came out at 5.1 ng/mL (≈ 8.77 nM).

Consider `CN[C@@H]1[C@@H](O)[C@@H](O[C@@H]2[C@@H](O)[C@H](O[C@H]3O[C@H](CN)[C@@H](O)[C@H](O)[C@H]3O)[C@@H](N)C[C@H]2NC(=O)[C@@H](O)CN)OC[C@]1(C)O` [ISM], for which the “IC50” value was 3.6 ng/mL (≈ 6.32 nM).

Take `CN[C@@H]1[C@H](O)[C@H](NC)[C@H]2O[C@@]3(O)C(=O)C[C@@H](C)O[C@H]3O[C@@H]2[C@H]1O` [SPM]: the “IC50” value is given as 9.8 ng/mL (≈ 29.5 nM).

With `CNC[C@@H]1CC[C@@H](N)[C@@H](O[C@H]2[C@H](O)[C@@H](O[C@H]3OC[C@](C)(O)[C@H](NC)[C@H]3O)[C@H](N)C[C@@H]2N)O1` [MIM], the half-maximal inhibitory concentration (IC50) turned out to be 3.8 ng/mL (≈ 8.2 nM).

On to `CCN[C@@H]1C[C@H](N)[C@@H](O[C@H]2O[C@H](CN)CC[C@H]2N)[C@H](O)[C@H]1O[C@H]1OC[C@](C)(O)[C@H](NC)[C@H]1O` [ETM], for which the “IC50” value amounted to 17 ng/mL (≈ 35.6 nM).

Consider `NCC[C@H](O)C(=O)N[C@@H]1C[C@H](N)[C@@H](O[C@H]2O[C@H](CN)[C@@H](O)[C@H](O)[C@H]2O)[C@H](O)[C@H]1O[C@H]1O[C@H](CO)[C@@H](O)[C@H](N)[C@H]1O` [AMK], for which the half-maximal inhibitory concentration (IC50) worked out at 5.1 ng/mL (≈ 8.71 nM).

`CCN[C@@H]1C[C@H](N)[C@@H](O[C@H]2OC(CN)=CC[C@H]2N)[C@H](O)[C@H]1O[C@H]1OC[C@](C)(O)[C@H](NC)[C@H]1O` [NTM]: the 50% inhibitory concentration (IC50) was determined as 16 ng/mL (≈ 33.6 nM).

For the next test, the system named is T1, RPSL12-TetR. The test can be described thus: microplate direct competition chemiluminescence, coated fusion protein, MC-HRP tracer. In kind it is binding, Escherichia coli. The note with it: competition with minocycline-HRP conjugate (TetR part); blank pork extract; 37 °C, 30 min. An excerpt: microplate direct competition chemiluminescence, coated fusion protein, MC-HRP tracer on RPSL12-TetR
Turning to `C[C@H]1c2cccc(O)c2C(=O)C2=C(O)[C@]3(O)C(=O)C(C(N)=O)=C(O)[C@@H](N(C)C)[C@@H]3[C@@H](O)[C@@H]21` [DC], the “IC50” value is 0.0395 ng/mL (≈ 0.0889 nM).

As for `CN(C)[C@@H]1C(=O)C(C(N)=O)=C(O)[C@@]2(O)C(=O)C3=C(O)c4c(O)cccc4[C@@](C)(O)[C@H]3[C@H](O)[C@@H]12` [OTC], the half-maximal inhibitory concentration (IC50) was found to be 0.0402 ng/mL (≈ 0.0873 nM).

For the molecule `CN(C)[C@@H]1C(O)=C(C(=O)NCNCCCC[C@H](N)C(=O)O)C(=O)[C@@]2(O)C(O)=C3C(=O)c4c(O)cccc4[C@@](C)(O)[C@H]3C[C@@H]12` [LMC], the “IC50” value came to 0.0427 ng/mL (≈ 0.0709 nM).

Consider `CN(C)[C@@H]1C(=O)C(C(N)=O)=C(O)[C@@]2(O)C(=O)C3=C(O)c4c(O)cccc4C[C@H]3C[C@@H]12` [SC], for which the half-maximal inhibitory concentration (IC50) is 0.0378 ng/mL (≈ 0.0912 nM).

For `CN(C)c1ccc(O)c2c1C[C@H]1C[C@H]3[C@H](N(C)C)C(O)=C(C(N)=O)C(=O)[C@@]3(O)C(O)=C1C2=O` [MC], the “IC50” value is listed as 0.0357 ng/mL (≈ 0.078 nM).

Regarding `C=C1c2cccc(O)c2C(O)=C2C(=O)[C@]3(O)C(O)=C(C(N)=O)C(=O)[C@@H](N(C)C)[C@@H]3[C@@H](O)[C@H]12` [MTC], the “IC50” value is listed as 0.0418 ng/mL (≈ 0.0945 nM).

On to `CN(C)[C@@H]1C(=O)C(C(N)=O)=C(O)[C@@]2(O)C(=O)C3=C(O)c4c(O)ccc(Cl)c4[C@@](C)(O)[C@H]3C[C@@H]12` [CTC], for which the “IC50” value was 0.0344 ng/mL (≈ 0.0718 nM).

For the molecule `CN(C)c1cc(NC(=O)CNC(C)(C)C)c(O)c2c1C[C@H]1C[C@H]3[C@H](N(C)C)C(=O)C(C(N)=O)=C(O)[C@@]3(O)C(=O)C1=C2O` [TIC], the “IC50” value was found to be 0.0414 ng/mL (≈ 0.0707 nM).

On to `CN(C)[C@@H]1C(=O)C(C(N)=O)=C(O)[C@@]2(O)C(=O)C3=C(O)c4c(O)cccc4[C@@](C)(O)[C@H]3C[C@@H]12` [TC], for which the “IC50” value is given as 0.038 ng/mL (≈ 0.0855 nM).

With `CN(C)[C@@H]1C(=O)C(C(N)=O)=C(O)[C@@]2(O)C(=O)C3=C(O)c4c(O)ccc(Cl)c4[C@@H](O)[C@H]3C[C@@H]12` [DMC], the 50% inhibitory concentration (IC50) worked out at 0.0287 ng/mL (≈ 0.0617 nM).
